# According to patent USH1992H, “Metalloproteinase inhibitors, pharmaceutical compositions containing them, and their pharmaceutical uses” (Agouron Pharmaceuticals, Inc., priority 1999, dated 2001):
# Tests used:
# Format in all cases: biochemical
# [1] = biological target: T1, human stromelysin-1 (Strom) (Homo sapiens, UniProt P08254); assay: Inhibition of stromelysin (Strom) - fluorogenic MCA peptide substrate hydrolysis; settings: catalytic domain; Ki,app; MCA peptide substrate 10 μM, pH 7.5, 37° C., 2% DMSO; enzyme 1.5 nM
# T1 construct: The catalytic domain of human stromelysin (Sln) was obtained by expression and purification of a C-terminally truncated prostromelysin-1; made in house; host or cells: E. coli BL21
# T1 sequence (P08254 100-272 limits assumed): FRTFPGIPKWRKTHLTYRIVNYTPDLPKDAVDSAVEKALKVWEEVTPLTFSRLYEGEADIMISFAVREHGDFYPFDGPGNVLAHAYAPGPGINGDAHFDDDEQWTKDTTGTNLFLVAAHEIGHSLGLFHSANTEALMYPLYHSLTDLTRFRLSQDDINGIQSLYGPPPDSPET
# Protocol: The catalytic domain of human stromelysin (Sln) was obtained by expression and purification of a C-terminally truncated prostromelysin-1 from E. coli host BL21 (see Marcy et al. Biochem., 1991, 30, 6476, which article is entirely incorporated herein by reference). The subsequent activation of the mature form (Sln) was completed with 2mM APMA for 1 hour at 37° C., followed by separation using a sizing column.
# (§1) Assays were performed in assay buffer (50 mM Tricine pH 7.5, 200 mM sodium chloride, 10 mM calcium chloride, 0.5 mM zinc acetate containing 2% dimethyl sulfoxide (DMSO)), once the substrate and inhibitor were diluted into it. Stock solutions of inhibitors were prepared in 100 % DMSO. Stock solutions of the substrate were prepared in 100 % DMSO at a concentration of 6 mM.
# (§2) The assay method was based on the hydrolysis of MCA-Pro-Leu-Gly-Leu-DPA-Ala-Arg-NH2 (American Peptide Co.) at 37° C. (see Knight, C. G. et al., FEBS, 1992, 296, 263-266, which article is entirely incorporated herein by reference). The fluorescence changes were monitored with a Perkin-Elmer LS-50B fluorimeter using an excitation wavelength of 328 nm and an emission wavelength of 393 nm. The substrate concentration used in the assays was 10 μM. The inhibitor was diluted into the assays from a solution in 100 % DMSO, and controls substituted an equal volume of DMSO so that the final DMSO concentration from inhibitor and substrate dilution in all assays was 2%. […] Proper determination of steady-state rates of substrate cleavage required assay lengths of 60 minutes to allow for complete equilibration of the enzyme-inhibitor complex.
# (§3) The Km for the MCA peptide substrate with the matrix metalloproteinases is quite high and exceeds its solubility under assay conditions. Consequently, the apparent Ki (Ki, app) was determined to describe the strength of inhibition. However, in this case, Ki,app would be essentially equal to Ki since [S]<<Km. For the determination of Ki,app, the concentration of the inhibitor was varied at a constant and low concentration of substrate, and the steady-state rates of fluorescence change were determined. In most cases, absorptive quench due to the presence of ligand was not observed. For slow-binding inhibitors, onset of inhibition curves were collected for at least 45 minutes so that equilibrium was established. Steady-state rates of fluorescence change were obtained by fitting a curve to an equation for a single exponential decay containing a linear phase. The fitted value of the linear phase was taken as the steady-state rate. The steady-state rates were fitted to the Michaelis equation describing competitive inhibition by non-linear methods. Data resulting from tight-binding inhibition was analyzed, and Ki,app determined by fitting the data to the tight-binding equation of Morrison (Biochem. Biophys. Acta, vol. 185, pp. 269-286 (1969), which article is entirely incorporated herein by reference) by non-linear methods.
# (§4) All Ki values are in nM units.
# [2] = biological target: T2, human collagenase-1 (HFC) (Homo sapiens, UniProt P03956); assay: Inhibition of collagenase-1 (HFC) - fluorogenic MCA peptide substrate hydrolysis; settings: catalytic domain; Ki,app; MCA peptide substrate 10 μM, pH 7.5, 37° C., 2% DMSO
# T2 construct: the fibroblast collagenase-1 catalytic domain (HFC) was released; ubiquitin (fusion) (cleaved yes); made in house; host or cells: E. coli
# T2 sequence (P03956 100-269 limits assumed): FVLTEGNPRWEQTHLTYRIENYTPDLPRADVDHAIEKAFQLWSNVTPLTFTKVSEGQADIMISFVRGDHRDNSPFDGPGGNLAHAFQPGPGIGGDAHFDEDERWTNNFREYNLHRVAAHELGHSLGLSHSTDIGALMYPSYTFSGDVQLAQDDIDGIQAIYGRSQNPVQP
# Source text: The catalytic domain of human collagenase-1 was expressed as a fusion protein with ubiquitin in E. coli (see Gehring, E. R., J. Biol. Chem., 1995, 270, 22507, which article is entirely incorporated herein by reference). After purification of the fusion protein, the fibroblast collagenase-1 catalytic domain (HFC) was released either by treatment with purified, active stromelysin-1 (1:50 w/w ratio), which generated nearly 100% N-terminal Phe1, or by autoprocessing the concentrated collagenase-1 fusion and then incubating at 37° C. for 1 hour. Final purification was completed using zinc chelate chromatography.
# as §1, §2, §3, §4
# [3] = biological target: human collagenase-3 (Coll-3); assay: Inhibition of collagenase-3 (Coll-3) - fluorogenic MCA peptide substrate hydrolysis; settings: catalytic domain; Ki,app; MCA peptide substrate 10 μM, pH 7.5, 37° C., 2% DMSO
# Protocol: The propeptide and catalytic domain of human collagenase-3 (Coll3) was expressed in E. coli as an N-terminal fusion protein with ubiquitin. After purification of the fusion from inclusion bodies, the catalytic domain was liberated by treatment with 2mM APMA at room temperature overnight. Final purification was completed using copper chelate chromatography.
# as §1, §2, §3, §4
# [4] = biological target: human gelatinase A (Gel A); assay: Inhibition of gelatinase A (Gel A) - fluorogenic MCA peptide substrate hydrolysis; settings: catalytic and fibronectin-like portion; Ki,app; MCA peptide substrate 10 μM, pH 7.5, 37° C., 2% DMSO; enzyme 60 pM
# Protocol: The catalytic and fibronectin-like portion of human progelatinase A (GelA) was expressed as a fusion protein with ubiquitin in E. Coli. Assays were carried out on autocatalytically activated material.
# as §1, §2, §3, §4
# [5] = biological target: T3, human matrilysin (Matr) (Homo sapiens, UniProt P09237); assay: Inhibition of matrilysin (Matr) - fluorogenic MCA peptide substrate hydrolysis; settings: catalytic domain; Ki,app; MCA peptide substrate 10 μM, pH 7.5, 37° C., 2% DMSO
# T3 construct: the catalytic domain was liberated by treatment with 2mM APMA; ubiquitin (fusion) (cleaved yes); made in house; host or cells: E. coli
# T3 sequence (P09237 95-267): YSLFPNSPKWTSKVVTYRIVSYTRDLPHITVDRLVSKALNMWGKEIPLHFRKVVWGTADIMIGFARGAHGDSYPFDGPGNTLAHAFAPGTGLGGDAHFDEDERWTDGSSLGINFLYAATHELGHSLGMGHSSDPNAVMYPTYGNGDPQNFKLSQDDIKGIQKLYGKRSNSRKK
# Protocol: Human matrilysin (Matr) was expressed in E. coli as a fusion protein with ubiquitin. After purification of the matrilysin/ubiquitin fusion from inclusion bodies, the catalytic domain was liberated by treatment with 2mM APMA at 37 ° C. for 2 hours. Final purification was complete using copper chelate chromatography.
# as §1, §2, §3, §4
Ki [1],Ki [2],Ki [3],Ki [4],Ki [5],Structure (SMILES)
0.35 nM,7.6 nM,0.02 nM,,,"CC(C)[C@H](C(=O)NO)N(Cc1cccnc1)S(=O)(=O)c1ccc(Oc2ccc(Br)cc2)cc1 [Example 3(a), 2(R)-2-[4-(4-Bromophenoxy)benzenesulfonyl][(pyridin-3-yl)methyl]amino-N-hydroxy-3-methylbutanamide]"
1.2 nM,6 nM,0.05 nM,,,"CC(C)[C@H](C(=O)NO)N(Cc1cccnc1)S(=O)(=O)c1ccc(Oc2ccccc2)cc1 [Example 3(b), 2(R)-N-hydroxy-2-[(4-phenoxy)benzenesulfonyl][(pyridin-3-yl)methyl]amino-3-methylbutanamide]"
16000 nM,481000 nM,448 nM,192 nM,540000 nM,O=C(O)[C@H]1CCCCN1S(=O)(=O)c1ccc(Oc2ccc(Br)cc2)cc1 [Example 5(a)]
0.04 nM,15 nM,0.014 nM,0.018 nM,44 nM,"O=C(NO)[C@H]1CCCCN1S(=O)(=O)c1ccc(Oc2ccc(Br)cc2)cc1 [Example 5, 2(R)-1-[4-(4-Bromophenoxy)benzenesulfonyl]-N-hydroxypiperidine-2-carboxamide]"
2190 nM,125000 nM,212 nM,64 nM,72000 nM,O=C(O)[C@H]1CCCCN1S(=O)(=O)c1ccc(Oc2ccc(-c3ccccc3)cc2)cc1 [Example 6(a)]
0.06 nM,8.8 nM,,0.014 nM,6.7 nM,"O=C(NO)[C@H]1CCCCN1S(=O)(=O)c1ccc(Oc2ccc(-c3ccccc3)cc2)cc1 [Example 6, 2(R)-1-[4-(Biphenyl-4-yl)oxybenzenesulfonyl]-N-hydroxy-piperidine-2-carboxamide]"
0.07 nM,6.6 nM,,,55 nM,"O=C(NO)[C@H]1CCCCN1S(=O)(=O)c1ccc(Oc2ccccc2)cc1 [Example 7, 2(R)-1-(4-Phenoxy-benzenesulfonyl)-N-hydroxy-piperidine-2-carboxamide]"

Structure (SMILES),Ki [1],Ki [2],Ki [3],Ki [4],Ki [5]
"CCOP(=O)(CN(CC(=O)O)S(=O)(=O)c1ccc(Oc2ccccc2)cc1)OCC [Example 4(a), 2(R)-2-[(diethylphosphonomethyl)(4-phenoxybenzenesulfonyl)-amino]-acetic acid]",27000 nM,,740 nM,,
"CCOP(=O)(CN(CC(=O)NO)S(=O)(=O)c1ccc(Oc2ccccc2)cc1)OCC [Example 4, 2(R)-2-[(diethylphosphonomethyl)(4-phenoxybenzenesulfonyl)amino]-N-hydroxyacetamide]",0.23 nM,27 nM,0.09 nM,,
